Assay results: paper PMC7959842, “Deregulation of Factor H by Factor H-Related Protein 1 Depends on Sialylation of Host Surfaces” (Frontiers in Immunology, 2021)

Tests used:
Assay type in all cases: binding
FH18-20 [1] = target: T1, FH18-20 (Homo sapiens, UniProt P08603); test: intrinsic tryptophan fluorescence (nanoDSF), titration; also STD NMR; conditions: 50 mM HEPES pH 7.4, 150 mM NaCl, 3 mM EDTA; 20 and 37 °C; in solution
T1 construct: gene CFH; C-terminal fragment CCP18-20, monomeric, recombinant from Pichia pastoris
T1 sequence (P08603 1046-1231 limits assumed): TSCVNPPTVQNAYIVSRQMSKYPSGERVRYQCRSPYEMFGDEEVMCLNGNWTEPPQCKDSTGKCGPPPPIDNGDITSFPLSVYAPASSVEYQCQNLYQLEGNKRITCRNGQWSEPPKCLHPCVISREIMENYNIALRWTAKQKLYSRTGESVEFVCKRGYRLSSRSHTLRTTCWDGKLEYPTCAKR

FH18-20 [2] = target: T1, FH18-20; test: SPR, immobilised glycan, concentration series; conditions: labelled compound (biotin-coupled on streptavidin chip); PBS, 0.005% Tween20, 25 °C; rough estimate, saturation not reached; read-out: affinity
FH19-20 = target: T2, FH19-20 (Homo sapiens, UniProt P08603); test: SPR, immobilised glycan, concentration series; conditions: labelled compound (biotin-coupled on streptavidin chip); PBS, 0.005% Tween20, 25 °C; rough estimate, saturation not reached; read-out: affinity
T2 construct: gene CFH; C-terminal fragment CCP19-20, recombinant from Pichia pastoris
T2 sequence (P08603 1107-1231 limits assumed): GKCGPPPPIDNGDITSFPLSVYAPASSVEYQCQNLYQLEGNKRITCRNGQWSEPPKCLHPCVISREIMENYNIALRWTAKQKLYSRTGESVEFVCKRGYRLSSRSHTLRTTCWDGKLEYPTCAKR

Kd (FH18-20 [2])	Kd (FH19-20)	Compound	affinity (FH18-20 [1])
		CC(=O)N[C@H]1[C@H]([C@H](O)[C@H](O)CO)O[C@@](O[C@H]2[C@@H](O)[C@@H](CO)O[C@@H](O[C@H]3[C@H](O)[C@@H](O)C(O)O[C@@H]3CO)[C@@H]2O)(C(=O)O)C[C@@H]1O (stereo partly drawn) [3’-sialyllactose]	monovalent interactions in solution were generally weaker; with estimated affinities in the millimolar range
> 100 µM	> 100 µM	biotinylated 3´-sialyl-N-acetyllactosaminide	
